Measured values reported in patent US6867015B1, “Rapid microbiological test for the detection of antibacterial compounds” (Gist-Brocades B.V., priority 1995, dated 2005).

Legend:
Type in all cases: cell-based
[1] = test system: Bacillus stearothermophilus var. calidolactis C953 spores; experiment: Test type A: agar test tubes with bromocresolpurple and nutrient tablet, milk sample; conditions: fresh cow's milk, 64° C.
Procedure: Test tubes of type A contained an agar medium prepared as follows: A solution was made of 12 g agar, 9 g sodium chloride and 50 ml of a 0.1 M triethanolamine buffer solution (pH=8.0) in 1000 ml distilled water. An amount of a solution of bromocresolpurple to give a final concentration of 20 mg per 1000 ml was also added. The final solution was sterilized for 20 minutes at 121° C. and cooled to about 60° C. To this solution different amounts of a suspension of Bacillus stearothermophilus var. calidolactis […] spores in distilled water were added to give final concentrations between 10^5 and 10^10 spores per ml. Sterile tubes with a diameter of about 9 mm were filled with 0.3 ml of the agar solution under aseptic conditions and immediately sealed, e.g. with aluminium foil. The agar solution in the test tubes was allowed to solidify in the test tubes while the test tubes were held in an upright position. The tubes were stored at a temperature between 5° C. and 15° C. A mixture was made of 100 g dextrose, 160 g Avicel PH101, 50 g tryptose, 14 g yeast extract and 15 g precirol. This mixture was sufficient to prepare about 18000 tablets with a diameter of approximately 3 mm and a thickness of approximately 1.9 mm. […] The time at which the colour of the agar medium became yellow was determined. […]

[2] = test system: Bacillus stearothermophilus var. calidolactis C953 spores; experiment: Test type B: agar test tubes with Brilliant Black and Toluidine Blue, milk sample
Procedure: Test tubes of type B contained an agar medium prepared as follows: A solution was made of 10 g agar, 9 g sodium chloride, 2 g glucose, 2 g peptone, 2 g tryptone, 4 g yeast extract and 50 ml of a 0.1 M triethanolamine buffer solution (pH=8.0) in 1000 ml distilled water. The final solution was sterilized for 20 minutes at 121° C. and cooled to about 60° C. An amount of a solution of Brilliant Black to give a final concentration of 80 mg per 1000 ml and an amount of a solution of Toluidine Blue to give a final concentration of 3 mg per 1000 ml were also added. To this solution different amounts of a suspension of Bacillus stearothermophilus var. caildolactis C953 spores In distilled water were added to give final concentrations between 10^8 and 10^10 spores per ml. Sterile tubes with a diameter of about 9 mm were filled with 0.3 ml of the agar solution under aseptic conditions and Immediately sealed e.g. with an aluminum foil. The agar solution In the test tubes was allowed to solidity in the test tubes while the test tubes were held in an upright position. The tubes were stored at a temperature between 5° C. and 15° C. An amount of penicillin G of 0.003 I.U. per ml was added to fresh cow's milk. The control sample contained no penicillin G. Two of each of the test tubes of type B with concentrations of Bacillus stearothermophilus var. calidolactis spores as described in Example II were opened by removing the seal. Then 0.1 ml of each of the two milk samples was added to each of the test tubes and the test tubes were immediately placed in a waterbath kept at 64° C. Observations were made after 30 minutes to 3 hours. The time at which the colour of the agar medium became yellow was determined. As is shown in Table 1, the test duration correlated with the amount of spores added to the agar medium without influencing the sensitivity of the test in a negative way.

[3] = test system: Bacillus stearothermophilus var. calidolactis spores C953; experiment: Test type C: microtiterplates with agar medium containing trimethoprim, milk sample
Procedure: For the preparation of the test plates (test type C) the procedure described in Example I was followed except that the nutrients described in Example III (dextrose, tryptose and yeast extract) were not added separately but were added to the initial agar medium in the same concentration as described in Example I. Also together with the buffer solution an amount of trimethoprim solution was added to give a final concentration of 60 μg per litre. To the wells of sterile microtiterplates 20 μl of the agar solution was added under asceptic conditions. The plates were immediately sealed with aluminium foil. The plates were stored at a temperature between 5° C. and 15° C. An amount of penicillin G of 3 ppb was added to fresh cow's milk. […] The control sample contained no penicillin G or sulphadiazine. The microtiterplates were opened by removing the seal. Then 20 μl of each of the three milk samples was added to each of the test plates (duplo) containing different concentrations of Bacillus stearothermophilus var. calidolactis spores […]. The plates were immediately placed in a waterbath kept at 64° C. Observations were made after 30 minutes to 150 minutes. The time at which the colour of the agar medium became yellow was determined. As is shown in table 2, the test duration correlated with the amount of spores added to the agar medium without influencing the sensitivity of the test in a negative way.

[4] = test system: Streptococcus thermophilus T101 (DSM 4022); experiment: Test type D: detection of antibiotics in milk without agar, bromocresolpurple; conditions: test duration of 80 minutes
Procedure: In this experiment Streptococcus thermophilus […] (DSM 4022) was sed for the determination of antibiotics in milk. Streptococcus thermophilus […] was grown using methods known per se. An amount of a solution of bromocresolpurple to give a final concentration of […] was added to fresh cow's milk. To part of the fresh cow's milk also an amount of penicillin G of 4 ppb added. The control sample contained no penicillin G. To the milk samples different amounts of Streptococcus thermophilus […] were added to give final concentrations between 10^7 and 10^9 CFU per ml. Immediately after preparation of the samples sterile tubes with a diameter of about 9 mm were filled with 0.3 ml of each milk sample (duplo). The tubes were immediately placed in a waterbath kept at 42° C. Observations were made after 30 minutes to 2 hours and 30 minutes. The time at which the colour of the agar medium became yellow was determined. As is shown in table 3, the test duration correlated with the amount of cells added to the milk without influencing the sensitivity of the test in a negative way.

Compound | detectable amount of antibacterial compound (agar medium blue) [1] | concentration detected in a milk sample ([2]; as little as 70 minutes, test organism more than 10^7 CFU per ml) | concentration that can be detected ([2]; test type B, test duration of 70 minutes, milk) | concentration detected in a milk sample ([2]; test unit of 0.3 ml agar solution in upright test tube of internal diameter 9 mm) | concentration that can be detected ([3]; test duration of 80 minutes) | concentration that can be detected ([3]; test duration of 90 minutes) | concentration that can be detected [4]
CC1(C)S[C@@H]2[C@H](NC(=O)Cc3ccccc3)C(=O)N2[C@H]1C(=O)O [penicillin G] | ≥ 0.003 I.U. per ml | 0.003 IU/ml | 0.003 I.U. per ml | 0.003 lU/ml | 3 ppb | 3 ppb | ≥ 4 ppb
Nc1ccc(S(=O)(=O)Nc2ncccn2)cc1 [sulphadiazine] |  |  |  |  |  | 100 ppb | 
